Results taken from publication PMC4076210, “Discovery of Novel AKT Inhibitors with Enhanced Anti-Tumor Effects in Combination with the MEK Inhibitor” (PLoS ONE, 2014).
Several values for one entry are separate records, joined by “and”; a condition that tells them apart may be missing. Equal entries are not always repeated. Where two headings read alike, the source gives them in different places.

How the values were obtained:
PKCβ1 = PKCβ1 (Homo sapiens, UniProt P05771); assay: Kinase IC50 assay; format: biochemical
Abl(h) = molecular target: T1, Abl(h) (Homo sapiens, UniProt P00519); assay: Kinase panel; format: biochemical
T1 construct: purchased Millipore KinaseProfiler
T1 sequence (P00519 whole entry): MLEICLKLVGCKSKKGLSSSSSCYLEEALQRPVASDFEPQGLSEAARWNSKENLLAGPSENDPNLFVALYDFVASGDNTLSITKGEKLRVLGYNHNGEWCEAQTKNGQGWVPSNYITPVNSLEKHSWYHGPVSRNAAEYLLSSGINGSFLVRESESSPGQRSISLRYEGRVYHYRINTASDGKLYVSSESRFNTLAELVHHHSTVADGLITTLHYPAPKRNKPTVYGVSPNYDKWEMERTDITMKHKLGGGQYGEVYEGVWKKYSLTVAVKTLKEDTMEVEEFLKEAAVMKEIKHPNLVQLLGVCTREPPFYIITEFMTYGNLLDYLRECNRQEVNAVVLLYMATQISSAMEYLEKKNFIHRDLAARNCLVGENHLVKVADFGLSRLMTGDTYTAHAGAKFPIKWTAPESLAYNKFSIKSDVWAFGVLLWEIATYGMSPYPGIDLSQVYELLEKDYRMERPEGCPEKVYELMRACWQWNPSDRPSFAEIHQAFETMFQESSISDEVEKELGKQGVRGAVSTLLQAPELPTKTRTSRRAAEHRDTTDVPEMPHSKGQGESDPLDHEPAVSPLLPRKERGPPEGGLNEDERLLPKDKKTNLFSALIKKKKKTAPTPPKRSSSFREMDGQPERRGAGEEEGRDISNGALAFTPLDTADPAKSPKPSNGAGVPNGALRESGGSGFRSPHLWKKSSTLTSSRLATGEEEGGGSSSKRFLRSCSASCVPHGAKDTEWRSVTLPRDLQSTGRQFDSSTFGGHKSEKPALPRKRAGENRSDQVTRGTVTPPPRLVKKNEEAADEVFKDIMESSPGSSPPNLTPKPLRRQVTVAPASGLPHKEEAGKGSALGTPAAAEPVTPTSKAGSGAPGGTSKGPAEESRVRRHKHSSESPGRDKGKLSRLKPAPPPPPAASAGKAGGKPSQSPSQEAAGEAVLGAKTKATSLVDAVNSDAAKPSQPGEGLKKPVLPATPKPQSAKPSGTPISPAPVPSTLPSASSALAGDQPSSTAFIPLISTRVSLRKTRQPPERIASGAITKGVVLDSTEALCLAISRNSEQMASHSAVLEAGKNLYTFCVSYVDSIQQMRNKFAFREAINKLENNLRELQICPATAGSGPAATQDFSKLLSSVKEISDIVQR

TAO1(h) = molecular target: T2, TAO1(h) (Homo sapiens, UniProt Q7L7X3); assay: Kinase panel; format: biochemical
T2 construct: purchased Millipore KinaseProfiler
T2 sequence (Q7L7X3 1-1001): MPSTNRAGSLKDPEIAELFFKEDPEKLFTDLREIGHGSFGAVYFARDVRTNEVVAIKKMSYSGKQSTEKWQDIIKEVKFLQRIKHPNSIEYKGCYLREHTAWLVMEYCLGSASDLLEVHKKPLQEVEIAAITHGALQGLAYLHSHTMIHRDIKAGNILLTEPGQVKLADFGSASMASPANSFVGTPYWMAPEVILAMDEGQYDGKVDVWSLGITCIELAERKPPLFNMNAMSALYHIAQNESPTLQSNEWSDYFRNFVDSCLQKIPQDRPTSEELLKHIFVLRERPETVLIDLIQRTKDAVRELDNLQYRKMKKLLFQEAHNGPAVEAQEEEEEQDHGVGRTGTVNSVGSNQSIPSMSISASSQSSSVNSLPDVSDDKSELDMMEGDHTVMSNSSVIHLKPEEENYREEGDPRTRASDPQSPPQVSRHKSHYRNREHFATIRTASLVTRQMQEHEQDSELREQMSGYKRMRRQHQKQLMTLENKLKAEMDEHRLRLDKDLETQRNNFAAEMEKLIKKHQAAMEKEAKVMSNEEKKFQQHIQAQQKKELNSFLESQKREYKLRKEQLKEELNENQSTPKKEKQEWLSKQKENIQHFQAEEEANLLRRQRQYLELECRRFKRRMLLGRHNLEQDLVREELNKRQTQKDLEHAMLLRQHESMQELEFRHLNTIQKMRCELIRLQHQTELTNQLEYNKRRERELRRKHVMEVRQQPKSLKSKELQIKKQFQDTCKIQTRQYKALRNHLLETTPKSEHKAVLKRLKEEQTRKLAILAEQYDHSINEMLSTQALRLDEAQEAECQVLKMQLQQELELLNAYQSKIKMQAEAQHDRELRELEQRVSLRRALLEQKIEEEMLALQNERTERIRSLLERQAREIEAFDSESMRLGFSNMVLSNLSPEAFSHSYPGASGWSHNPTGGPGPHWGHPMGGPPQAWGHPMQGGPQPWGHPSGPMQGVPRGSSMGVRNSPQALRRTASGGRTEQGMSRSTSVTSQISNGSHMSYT

Pyk2(h) = molecular target: T3, Pyk2(h) (Homo sapiens, UniProt Q14289); assay: Kinase panel; format: biochemical
T3 construct: purchased Millipore KinaseProfiler
T3 sequence (Q14289 whole entry): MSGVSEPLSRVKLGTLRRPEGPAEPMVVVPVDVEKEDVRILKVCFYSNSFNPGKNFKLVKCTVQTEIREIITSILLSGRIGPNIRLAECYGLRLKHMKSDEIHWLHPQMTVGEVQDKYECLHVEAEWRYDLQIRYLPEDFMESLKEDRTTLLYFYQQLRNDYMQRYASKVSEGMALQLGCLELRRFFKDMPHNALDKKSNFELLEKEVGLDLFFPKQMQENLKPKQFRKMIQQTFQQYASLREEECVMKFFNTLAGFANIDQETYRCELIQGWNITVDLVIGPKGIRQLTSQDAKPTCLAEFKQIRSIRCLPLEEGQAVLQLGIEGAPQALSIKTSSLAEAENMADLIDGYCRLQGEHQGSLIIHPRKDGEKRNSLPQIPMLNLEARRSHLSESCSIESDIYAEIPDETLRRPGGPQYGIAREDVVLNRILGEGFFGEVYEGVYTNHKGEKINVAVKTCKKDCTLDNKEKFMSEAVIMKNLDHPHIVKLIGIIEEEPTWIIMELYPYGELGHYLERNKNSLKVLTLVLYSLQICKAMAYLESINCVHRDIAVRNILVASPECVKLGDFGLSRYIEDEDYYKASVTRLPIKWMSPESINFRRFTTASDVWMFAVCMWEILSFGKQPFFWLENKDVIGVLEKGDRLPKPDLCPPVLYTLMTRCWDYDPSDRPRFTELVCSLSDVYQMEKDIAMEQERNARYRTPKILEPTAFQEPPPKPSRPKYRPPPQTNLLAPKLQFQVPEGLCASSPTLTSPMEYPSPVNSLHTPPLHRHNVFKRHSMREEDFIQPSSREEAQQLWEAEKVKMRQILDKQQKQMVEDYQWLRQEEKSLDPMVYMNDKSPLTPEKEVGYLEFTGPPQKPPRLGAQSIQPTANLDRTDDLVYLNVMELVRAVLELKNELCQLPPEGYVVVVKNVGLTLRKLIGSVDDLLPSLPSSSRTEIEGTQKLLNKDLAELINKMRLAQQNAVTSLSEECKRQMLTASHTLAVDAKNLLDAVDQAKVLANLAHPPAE

Met(h) = molecular target: T4, Met(h) (Homo sapiens, UniProt P08581); assay: Kinase panel; format: biochemical
T4 construct: purchased Millipore KinaseProfiler
T4 sequence (P08581 25-1390): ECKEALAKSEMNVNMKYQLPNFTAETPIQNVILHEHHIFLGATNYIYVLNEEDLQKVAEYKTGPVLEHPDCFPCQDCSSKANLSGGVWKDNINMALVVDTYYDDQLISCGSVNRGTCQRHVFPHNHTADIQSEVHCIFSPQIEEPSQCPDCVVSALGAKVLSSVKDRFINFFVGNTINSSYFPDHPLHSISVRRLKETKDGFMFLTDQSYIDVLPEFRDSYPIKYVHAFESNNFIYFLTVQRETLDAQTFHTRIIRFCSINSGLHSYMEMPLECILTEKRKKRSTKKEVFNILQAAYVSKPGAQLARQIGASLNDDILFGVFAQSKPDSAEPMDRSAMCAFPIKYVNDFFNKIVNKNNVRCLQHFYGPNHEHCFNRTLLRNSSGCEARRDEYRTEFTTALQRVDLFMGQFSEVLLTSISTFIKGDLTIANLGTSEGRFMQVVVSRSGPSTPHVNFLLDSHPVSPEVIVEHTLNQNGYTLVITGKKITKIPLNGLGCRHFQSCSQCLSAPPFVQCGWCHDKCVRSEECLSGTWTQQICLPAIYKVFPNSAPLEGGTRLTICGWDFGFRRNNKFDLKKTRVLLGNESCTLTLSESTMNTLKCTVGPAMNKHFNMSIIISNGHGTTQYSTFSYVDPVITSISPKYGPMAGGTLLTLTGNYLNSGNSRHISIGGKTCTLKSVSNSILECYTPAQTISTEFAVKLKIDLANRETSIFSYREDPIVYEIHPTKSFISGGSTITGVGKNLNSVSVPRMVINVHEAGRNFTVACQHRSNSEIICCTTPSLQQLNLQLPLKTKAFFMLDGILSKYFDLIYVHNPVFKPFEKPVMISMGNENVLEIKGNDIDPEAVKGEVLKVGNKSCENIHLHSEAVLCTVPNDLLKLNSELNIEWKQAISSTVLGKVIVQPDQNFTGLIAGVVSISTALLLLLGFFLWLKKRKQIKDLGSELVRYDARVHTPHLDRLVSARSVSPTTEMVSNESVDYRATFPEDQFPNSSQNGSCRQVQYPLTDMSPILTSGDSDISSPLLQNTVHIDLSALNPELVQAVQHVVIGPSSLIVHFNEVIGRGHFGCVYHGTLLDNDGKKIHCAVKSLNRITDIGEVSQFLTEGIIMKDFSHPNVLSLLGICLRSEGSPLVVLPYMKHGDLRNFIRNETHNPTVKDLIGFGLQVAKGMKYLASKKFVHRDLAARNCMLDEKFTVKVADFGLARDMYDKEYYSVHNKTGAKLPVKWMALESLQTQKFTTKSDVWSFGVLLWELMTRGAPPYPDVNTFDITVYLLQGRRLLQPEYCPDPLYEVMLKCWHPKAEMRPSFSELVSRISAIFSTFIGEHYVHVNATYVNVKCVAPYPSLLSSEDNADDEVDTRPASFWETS

CaMKIV(h) = molecular target: T5, CaMKIV(h) (Homo sapiens, UniProt Q16566); assay: Kinase panel; format: biochemical
T5 construct: purchased Millipore KinaseProfiler
T5 sequence (Q16566 1-473): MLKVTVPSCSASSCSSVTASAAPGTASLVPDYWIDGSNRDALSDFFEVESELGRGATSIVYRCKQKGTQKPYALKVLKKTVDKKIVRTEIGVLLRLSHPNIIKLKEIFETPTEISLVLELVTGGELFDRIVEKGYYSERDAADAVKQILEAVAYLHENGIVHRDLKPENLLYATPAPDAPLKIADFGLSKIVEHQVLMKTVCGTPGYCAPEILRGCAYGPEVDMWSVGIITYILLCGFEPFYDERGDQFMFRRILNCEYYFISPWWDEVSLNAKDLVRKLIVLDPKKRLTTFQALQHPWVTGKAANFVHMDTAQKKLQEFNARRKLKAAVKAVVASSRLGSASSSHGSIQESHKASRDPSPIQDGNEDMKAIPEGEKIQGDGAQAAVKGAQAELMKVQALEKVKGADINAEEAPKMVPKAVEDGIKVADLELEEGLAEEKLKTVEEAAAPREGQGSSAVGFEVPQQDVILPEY

PKCβ2 = PKCβ2 (Homo sapiens, UniProt P05771); assay: Kinase IC50 assay; format: biochemical
TSSK2(h) = molecular target: T6, TSSK2(h) (Homo sapiens, UniProt Q96PF2); assay: Kinase panel; format: biochemical
T6 construct: purchased Millipore KinaseProfiler
T6 sequence (Q96PF2 1-358): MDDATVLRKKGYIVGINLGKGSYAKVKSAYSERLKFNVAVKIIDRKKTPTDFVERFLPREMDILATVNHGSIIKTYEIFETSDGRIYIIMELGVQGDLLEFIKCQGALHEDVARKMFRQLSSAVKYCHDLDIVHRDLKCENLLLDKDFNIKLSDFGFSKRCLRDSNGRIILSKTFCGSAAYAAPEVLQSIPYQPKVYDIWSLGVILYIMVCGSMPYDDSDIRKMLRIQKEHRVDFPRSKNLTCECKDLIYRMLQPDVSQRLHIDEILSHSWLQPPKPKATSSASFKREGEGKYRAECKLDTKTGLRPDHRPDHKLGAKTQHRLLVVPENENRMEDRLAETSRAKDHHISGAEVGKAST

cancer patients = conditions: unselected patient population; cited from earlier work
[1] = test system: FOXO_GFP translocation in MDA-MB-468; assay: FOXO3A-GFP translocation assay; format: cell-based, human; conditions: MDA-MB-468, 1 h, mean ± std dev
Experimental: MDA-MB-468 cells stably transfected with FOXO3A-GFP were plated at 1000 cells/96 well and allowed to adhere overnight. Cells were treated with DMSO or AKT inhibitor (0-10 µM) for 1 h. Plates were centrifuged at 1200 rpm for 10 min, and the medium aspirated. Cells were fixed with 200 μL of 4% paraformaldehyde (Alfa Aesar, Wood Hill, MA), and DAPI (80 ng/mL, Roche, Branchburg, NJ) was added to each well and incubated for 20 min at room temperature. […] Five fields per well were imaged to achieve ≥250 nuclei count per well. A ratio of nuclear to cytoplasmic intensity was calculated by the software. The formula used to calculate percentage nuclear translocation = (Fluorescence sample- Fluorescence DMSO)/ (Fluorescence 10 µM treatment sample- Fluorescence DMSO)*100. The calculation produces a scale of 0-100% with 100% being 10 µM of compound treatment and 0 being DMSO treatment. The normalized values were then plotted in the XLFit 4 parameter curve fitting program to generate EC50 values.

CLK3(h) = molecular target: T7, CLK3(h) (Homo sapiens, UniProt P49761); assay: Kinase panel; format: biochemical
T7 construct: purchased Millipore KinaseProfiler
T7 sequence (P49761 whole entry): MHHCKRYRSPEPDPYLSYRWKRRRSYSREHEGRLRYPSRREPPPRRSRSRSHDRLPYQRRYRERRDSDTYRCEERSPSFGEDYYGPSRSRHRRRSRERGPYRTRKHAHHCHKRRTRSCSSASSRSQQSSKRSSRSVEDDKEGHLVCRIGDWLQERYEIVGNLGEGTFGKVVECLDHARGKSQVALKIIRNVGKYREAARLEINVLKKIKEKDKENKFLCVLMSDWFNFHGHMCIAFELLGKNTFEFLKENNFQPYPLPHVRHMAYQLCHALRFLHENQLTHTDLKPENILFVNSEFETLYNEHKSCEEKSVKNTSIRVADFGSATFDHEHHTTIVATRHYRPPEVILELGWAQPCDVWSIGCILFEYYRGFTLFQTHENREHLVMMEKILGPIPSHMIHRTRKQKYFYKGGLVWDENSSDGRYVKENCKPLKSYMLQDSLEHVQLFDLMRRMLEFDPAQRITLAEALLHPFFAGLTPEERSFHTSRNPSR

PKBα(h) = molecular target: T8, PKBα(h) (Homo sapiens, UniProt P31749); assay: Kinase panel; format: biochemical
T8 construct: purchased Millipore KinaseProfiler
T8 sequence (P31749 whole entry): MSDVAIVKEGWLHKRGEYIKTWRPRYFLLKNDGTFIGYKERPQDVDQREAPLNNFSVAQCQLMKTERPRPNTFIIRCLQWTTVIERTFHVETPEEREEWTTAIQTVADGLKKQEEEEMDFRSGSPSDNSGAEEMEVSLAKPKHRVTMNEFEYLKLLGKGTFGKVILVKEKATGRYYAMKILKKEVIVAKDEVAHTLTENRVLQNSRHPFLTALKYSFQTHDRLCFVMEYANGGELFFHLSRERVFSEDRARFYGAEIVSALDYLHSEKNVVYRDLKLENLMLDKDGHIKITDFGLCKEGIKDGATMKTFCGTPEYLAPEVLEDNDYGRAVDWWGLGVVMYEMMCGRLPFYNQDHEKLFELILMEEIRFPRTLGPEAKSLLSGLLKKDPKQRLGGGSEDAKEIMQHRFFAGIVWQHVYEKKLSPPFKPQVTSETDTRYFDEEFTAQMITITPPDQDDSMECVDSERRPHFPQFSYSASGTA

[2] = Compound concentration in blood and tumor (HPLC/MS/MS); format: in vivo, mouse
Experimental: Concentration of the test compounds in the tissue and blood was analyzed using protein precipitation with acetonitrile, followed by HPLC/MS/MS analysis using positive ion atmospheric pressure chemical ionization or Turbo ionspray ionization (API 4000 or API 5000, Applied Biosystems).
The pharmacodynamic studies were carried out in SCID mice bearing BT474 tumor xenografts. […] Concentration of the test compounds was analysed by HPLC/MS/MS analysis.

Cn1ncc(Cl)c1-c1cc(C(=O)N[C@H](CN)Cc2cccc(F)c2)sc1Cl [GSK2110183] showed an IC50 (PKCβ1) of 430 nM, an inhibition at 0.5 µM (Abl(h)) of 8% and an inhibition at 10 µM (Abl(h)) of 4%. The inhibition at 0.5 µM (TAO1(h)) was 15%, the inhibition at 10 µM (TAO1(h)) was 49% and the inhibition at 0.5 µM (Pyk2(h)) was -7%. It also gave an inhibition at 10 µM (Pyk2(h)) of 2%, an inhibition at 0.5 µM (Met(h)) of -7% and an inhibition at 10 µM (Met(h)) of 11%. The inhibition at 0.5 µM (CaMKIV(h)) was -15%, the inhibition at 10 µM (CaMKIV(h)) was 0% and the IC50 (PKCβ2) was > 1000 nM. For the same compound, the inhibition at 0.5 µM (TSSK2(h)) was 4% and the inhibition at 10 µM (TSSK2(h)) was 44%.
For Cn1ncc(Cl)c1-c1cc(C(=O)N[C@H](CN)Cc2ccc(F)c(F)c2)oc1Cl [GSK2141795], the “clinical activity, single agent” value (cancer patients) is listed as “partial response and stable disease”, the “IC50 (nM) / EC50, FOXO_GFP translocation” value [1] is listed as 47 nM and 47 ± 37 nM and the inhibition at 0.5 µM (Abl(h); 0.5 µM, read-out: % Inhibition) is listed as 12%. The inhibition at 10 µM (Abl(h); 10 µM, read-out: % Inhibition) was 13%, the inhibition at 0.5 µM (TAO1(h); 0.5 µM, read-out: % Inhibition) was -4% and the inhibition at 10 µM (TAO1(h); 10 µM, read-out: % Inhibition) was 24%. The inhibition at 0.5 µM (Pyk2(h); 0.5 µM, read-out: % Inhibition) was 1%, the inhibition at 10 µM (Pyk2(h); 10 µM, read-out: % Inhibition) was 16% and the inhibition at 0.5 µM (Met(h); 0.5 µM, read-out: % Inhibition) was -28%. The inhibition at 10 µM (Met(h); 10 µM, read-out: % Inhibition) was -6%, the inhibition at 0.5 µM (CaMKIV(h); 0.5 µM, read-out: % Inhibition) was -18% and the inhibition at 10 µM (CaMKIV(h); 10 µM, read-out: % Inhibition) was -21%. For the same compound, the inhibition at 0.5 µM (TSSK2(h); 0.5 µM, read-out: % Inhibition) was 7%, the inhibition at 10 µM (TSSK2(h); 10 µM, read-out: % Inhibition) was 53% and the inhibition at 0.5 µM (CLK3(h); 0.5 µM) was 2%. For the same compound, the inhibition at 10 µM (CLK3(h); 10 µM) was 59%, the inhibition at 0.5 µM (PKBα(h); 0.5 µM) was 99% and the inhibition at 10 µM (PKBα(h); 10 µM) was 99%. It also gave a blood concentrations ([2]; 30 mg/kg QDx7, time course, maintained for 8 h) of 2000 to 3000 nM and a concentration at 2 h ([2]; SCID, mouse, whole blood, 30 mg/kg QDx7 oral, 2 h post last dose) of ~3000 nM.
